Source: patent publication US10702486B2, “Treatment of CNS disorders with trans 4-(3,4-dichlorophenyl)-1,2,3,4-tetrahydro-1-naphthalenamine” (SUNOVION PHARMACEUTICALS INC., priority 2002, dated 2020)
“And” between values parts separate entries of the source, which are not always exact repeats. Equal values may be shown once. Read-outs that look alike come from different tables or passages of the source.

Key:
[1] = biological target: T1, functional uptake of serotonin (5-HT) (Rattus norvegicus, UniProt P31652); test: Serotonin functional uptake assay in rat synaptosomes; assay type: biochemical; conditions: for inhibition at 10 µM: tested initially at 10 μM in duplicate
T1 construct: synaptosomes isolated in a 0.32M sucrose buffer from a male Wistar rat cortex; from tissue
Experimental: (§1) The compounds of the invention were tested for their inhibition of functional uptake of serotonin (5-HT), norepinephrine (NE), or dopamine (DA), in synaptosomes prepared from rat whole brain, hypothalamus, or corpus striatum, respectively.
Serotonin Functional Uptake Assay
Characterization of serotonin uptake is performed using synaptosomes isolated in a 0.32M sucrose buffer from a male Wistar rat cortex. The uptake of radiolabelled serotonin by synaptosomes (100 μg of proteins/point) is allowed by incubating them in a deep well for 15 min at 37° C. in presence of test compounds and [^3H]5-hydroxytryptamine (0.1 μCi/point).
Synaptosomes and [^3H]5-hydroxytryptamine are prepared in a Krebs buffer pH 7.4 containing 25 mM NaHCO3, 11 mM glucose and 50 μM ascorbic acid. This incubation buffer is oxygenated during 5 minutes before incubation. Basal control is incubated for 15 minutes at 4° C. in order to avoid any uptake. Following this incubation the uptake is stopped by filtration through an “unifilter 96-wells GFB Packard plate” washed with Krebs buffer containing 25 mM NaHCO3 in order to eliminate the free [^3H]5-hydroxytryptamine. The radioactivity associated to the synaptosomes retained onto the unifilter corresponding to the uptake is then measured with a microplate scintillation counter Topcount, Packard using a scintillation liquid microscint 0, Packard.

[2] = biological target: functional uptake of norepinephrine (NE) (Rattus norvegicus, UniProt Q9WTR4); test: Norepinephrine functional uptake assay in rat hypothalamus synaptosomes; assay type: biochemical; conditions: [3H]-norepinephrine, 20 minutes at 37° C.
Experimental: as §1
Norepinephrine Functional Uptake Assay
Characterization of norepinephrine uptake is performed using synaptosomes isolated at Cerep in a 0.32 M sucrose buffer from a male Wistar rat hypothalamus. The uptake of radiolabeled norepinephrine by synaptosomes (100 μg of proteins/point) is allowed by incubating them for 20 minutes at 37° C. in presence of test compounds and [^3H]-norepinephrine (0.1 μCi/point). The experiment is performed in a deep well.
Synaptosomes and [^3H]-norepinephrine are prepared in a Krebs buffer pH 7.4 containing 25 mM NaHCO3, 11 mM glucose and 50 μM ascorbic acid. This incubation buffer is oxygenated during 5 minutes before incubation. Basal control is incubated for 20 minutes at 4° C. in order to avoid any uptake. Following this incubation the uptake is stopped by filtration through an “unifilter 96-wells GFB “Packard plate washed with Krebs buffer containing 25 mM NaHCO3 in order to eliminate the free [^3H]-norepinephrine. The radioactivity associated to the synaptosomes retained onto the unifilter corresponding to the uptake is then measured with a microplate scintillation counter Topcount, Packard using a scintillation liquid microscint 0, Packard.

[3] = biological target: T2, functional uptake of dopamine (DA) (Rattus norvegicus, UniProt P23977); test: Dopamine functional uptake assay in rat striatum synaptosomes; assay type: biochemical; conditions: for IC50: rat striatum synaptosomes, [3H]-dopamine, 15 minutes at 37° C.; for inhibition at 10 µM: tested initially at 10 μM in duplicate, read-out: inhibition of DA uptake (no IC50), Table 1
T2 construct: synaptosomes isolated at Cerep in a 0.32 M sucrose buffer from a male Wistar rat striatum; tissue Cerep; host or cells: male Wistar rat striatum synaptosomes
Experimental: Dopamine Functional Uptake Assay
Characterization of dopamine uptake is performed using synaptosomes isolated at Cerep in a 0.32 M sucrose buffer from a male Wistar rat striatum. The uptake of radiolabelled dopamine by synaptosomes (20 μg of proteins/point) is allowed by incubating them for 15 minutes at 37° C. in presence of test compounds and [^3H]-dopamine (0.1 μCi/point). The experiment is performed in a deep well. Synaptosomes and [^3H]-dopamine are prepared in a Krebs buffer pH 7.4 containing 25 mM NaHCO3, 11 mM glucose and 50 μM ascorbic acid. This incubation buffer is oxygenated during 5 minutes before incubation. Basal control is incubated for 15 minutes at 4° C. in order to avoid any uptake. Following this incubation the uptake is stopped by filtration through an “unifilter 96-wells GFB Packard plate” washed with Krebs buffer containing 25 mM NaHCO3 in order to eliminate free [^3H]-dopamine. The radioactivity associated to the synaptosomes retained onto the unifilter corresponding to the uptake is then measured with a microplate scintillation counter Topcount, Packard using a scintillation liquid microscint 0, Packard.

[4] = Behavioral Despair Test in Mice; assay type: in vivo; set-up: key to Dunnett, significance vs vehicle: * indicates a significant difference vs vehicle for P < 0.05 (Dunnett test)
[5] = Hamelin et al. 1996; Serebruany et al. 2001; cited from earlier work
[6] = 10 mg/kg, N = 10, E intraperitoneal
[7] = 50 mg/kg intraperitoneal, N = 10

T1 sequence (P31652 whole entry): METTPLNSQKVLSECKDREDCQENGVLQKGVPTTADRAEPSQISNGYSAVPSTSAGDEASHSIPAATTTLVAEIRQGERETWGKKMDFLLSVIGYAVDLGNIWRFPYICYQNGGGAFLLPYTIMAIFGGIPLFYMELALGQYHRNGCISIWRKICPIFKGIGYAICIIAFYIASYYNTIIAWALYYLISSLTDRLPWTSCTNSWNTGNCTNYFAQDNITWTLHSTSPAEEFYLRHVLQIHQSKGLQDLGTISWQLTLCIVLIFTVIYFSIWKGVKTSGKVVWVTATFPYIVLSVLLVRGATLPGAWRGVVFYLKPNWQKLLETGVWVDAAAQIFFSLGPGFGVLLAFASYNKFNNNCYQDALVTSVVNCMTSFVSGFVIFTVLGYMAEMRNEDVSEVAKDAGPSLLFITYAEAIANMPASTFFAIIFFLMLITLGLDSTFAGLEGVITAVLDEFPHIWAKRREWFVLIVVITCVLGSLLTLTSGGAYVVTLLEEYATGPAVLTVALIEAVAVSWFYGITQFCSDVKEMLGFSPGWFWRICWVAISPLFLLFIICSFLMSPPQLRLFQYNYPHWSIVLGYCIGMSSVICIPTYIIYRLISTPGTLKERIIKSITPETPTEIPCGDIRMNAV
T2 sequence (P23977 whole entry): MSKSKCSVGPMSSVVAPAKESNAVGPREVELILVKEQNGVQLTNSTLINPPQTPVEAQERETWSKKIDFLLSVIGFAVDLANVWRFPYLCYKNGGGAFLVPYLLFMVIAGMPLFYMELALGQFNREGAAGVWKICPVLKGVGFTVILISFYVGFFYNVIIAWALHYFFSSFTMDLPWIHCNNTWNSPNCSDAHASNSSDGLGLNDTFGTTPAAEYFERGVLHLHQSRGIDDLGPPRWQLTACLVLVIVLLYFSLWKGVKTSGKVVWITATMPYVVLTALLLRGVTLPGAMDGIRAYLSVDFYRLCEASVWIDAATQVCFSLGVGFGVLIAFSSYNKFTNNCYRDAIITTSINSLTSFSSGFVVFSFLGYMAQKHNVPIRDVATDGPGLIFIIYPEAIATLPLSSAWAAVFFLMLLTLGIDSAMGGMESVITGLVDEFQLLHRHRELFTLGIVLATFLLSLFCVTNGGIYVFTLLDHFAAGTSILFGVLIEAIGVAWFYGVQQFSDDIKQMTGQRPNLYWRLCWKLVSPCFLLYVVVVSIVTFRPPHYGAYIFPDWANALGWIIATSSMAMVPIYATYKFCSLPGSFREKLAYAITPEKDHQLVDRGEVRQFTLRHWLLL

O=CN[C@@H]1CC[C@@H](c2ccc(Cl)c(Cl)c2)c2ccccc21 (racemic) [F, N-[4-(3,4-dichlorophenyl)-1,2,3,4-tetrahydronaphthalen-1-yl]formamide]
inhibition at 10 µM ([1]; read-out: inhibition of 5-HT uptake (no IC50), Table 3): < 50%
IC50 [2]: 3900 nM
IC50 [3]: 530 nM

N[C@@H]1CC[C@@H](c2ccc(Cl)c(Cl)c2)c2ccccc21 (racemic) [P + Q, trans-4-(3,4-dichlorophenyl)-1,2,3,4-tetrahydro-1-naphthalenamine]
IC50 [2]: 8.8 nM
IC50 [3]: 7.1 nM

O=CN[C@@H]1CC[C@@H](c2ccc(Cl)c(Cl)c2)c2ccccc21 [E, (R,S/S,R) N-[4-(3,4-dichlorophenyl)-1,2,3,4-tetrahydronaphthalen-1-yl]formamide]
Dunnett, significance vs vehicle ([4]; 10 mg/kg, N = 10): *
Immobility Duration (sec.), individual mice [4, 6]: 59 s and 162 s and 131 s and 22 s and 167 s and 58 s and 135 s and 122 s and 164 s and 50 s
Immobility Duration, Mean ± sem [4, 6]: 107 s
Immobility Duration (sec.), individual mice [4, 7]: 15 sec. (2×) and 0 sec. (3×) and 98 sec. and 34 sec. and 59 sec. and 25 sec. and 63 sec.
Immobility Duration, Mean ± sem [4, 7]: 31 s
Dunnett, significance vs vehicle ([4]; 50 mg/kg, N = 10): *
IC50 ([1]; rat synaptosomes, [3H]5-hydroxytryptamine, 15 min at 37° C.): 7500 nM
IC50 [2]: 400 nM
IC50 [3]: 510 nM

Fc1ccc(C(OCCN2CCN(CCCc3ccccc3)CC2)c2ccc(F)cc2)cc1 [GBR 12909, reference compound]
inhibition at 10 µM ([1]; read-out: inhibition of 5-HT uptake (no IC50), Table 1): < 50%

N[C@@H]1CC[C@@H](c2ccc(Cl)c(Cl)c2)c2ccccc21 [P, (1R,4S)-trans 4-(3,4-dichlorophenyl)-1,2,3,4-tetrahydro-1-naphthalenamine]
IC50 [2]: 9.6 nM

N[C@H]1CC[C@H](c2ccc(Cl)c(Cl)c2)c2ccccc21 [Q, (1S,4R)-trans 4-(3,4-dichlorophenyl)-1,2,3,4-tetrahydro-1-naphthalenamine]
IC50 [2]: 35 nM

CC(NC(C)(C)C)C(=O)c1cccc(Cl)c1 (stereo not drawn) [bupropion, reference compound]
IC50 [2]: 611 nM

CN(C)CCCN1c2ccccc2CCc2ccccc21 [imipramine, reference compound]
Dunnett, significance vs vehicle ([4]; 10 mg/kg, N = 10): *
Immobility Duration (sec.), individual mice [4, 6]: 28 sec. and 156 sec. and 98 sec. and 0 sec. (2×) and 63 sec. and 30 sec. and 56 sec. and 116 sec. and 64 sec.
Immobility Duration, Mean ± sem [4, 6]: 61 s
inhibition at 10 µM [3]: < 50%

N[C@H]1CC[C@@H](c2ccc(Cl)c(Cl)c2)c2ccccc21 [norsertraline, (1S,4S)-cis 4-(3,4-dichlorophenyl)-1,2,3,4-tetrahydro-1-naphthalenamine]
neurological activity as stated in literature reports [5]: neurologically inactive

CNCCCC1c2ccccc2C=Cc2ccccc21 [protriptyline, reference compound]
inhibition at 10 µM [3]: < 50%
